The numbers were not newly measured in patent US20210308040A1, “KETAMINE ORAL TRANSMUCOSAL DELIVERY SYSTEM” (GUANGZHOU DAZHOU BIOMEDICINE LTD., priority 2018, published 2021), which cites them from elsewhere.

The conditions of data set [1]: 33 CRPS patients; about 23 mg/hr for about 4.7 days.
For data set [2] the following is noted: ketamine 0.3 mg/kg vs morphine 0.1 mg/kg, intravenous push.
For data set [3] the following is noted: in vivo.
Experiment in data set [4]: not given
The source holds these as a separate data set.

The next data set has as its system NMDAR. The conditions noted are these: rodent species.
Experiment in data set [5]: not given
This is another data set of the same source.

The next data set relates to NMDA receptor. To be noted: in vitro.
The subject of data set [6] is experimentally induced ischemic pain.
For data set [7] the following is noted: 0 to 24 hours postoperatively; bolus 0.5 mg/kg and infusion 0.25 mg/kg/hr.
For another data set, the system named is orofacial pain. The conditions noted are these: fixed doses.

As for `CNC1(c2ccccc2Cl)CCCCC1=O` (racemic) [ketamine], in data set [1], the “mean immediate response (% relief)” value is recorded as not above 92%, the “patients with alteration in hepatic enzyme profile” value is “four patients” and the patients with hallucinations result is reported as “six patients”. Further, the “indications of liver toxicity” value (39 clinical trials, IV infusion rate less than 1.2 mg/kg/h, bolus less than 1 mg/kg) is on record as “no indications of liver toxicity”. Also, for the setting “low-dose intravenous (IV) ketamine”, the “reduction of opioid consumption” value is on record as 40%. In addition, the “primary change in mean pain scores versus morphine” value in [2] was “no significant differences”. Besides, in data set [3], the “onset of antidepressant effect after administration” value is not above 2 h. Moreover, the absolute oral bioavailability in data set [4] (humans) was 10-20%. Also, in data set [4] (in vivo), the half-life is 2 to 3 h and the “systemic (primarily hepatic) clearance” value is recorded as “about 19 ml/min·kg”.

As for `C[C@]12N[C@H](Cc3ccccc31)c1ccccc12` [MK-801], the effect on analgesia result in the data set with NMDAR was “anti-analgesic effect”.

`CN[C@@]1(c2ccccc2Cl)CCCCC1=O` [R-ketamine]: the “psychotomimetic side effects and abuse liability” value in [5] (animal models) is “free of psychotomimetic side effects and abuse liability”. Moreover, the “antidepressant effectiveness versus S-ketamine” value in data set [5] (model animal studies) is “more effective as an antidepressant than S-ketamine”.

On to `CN[C@]1(c2ccccc2Cl)CCCCC1=O` [S-ketamine], for which the “potency in NMDAR binding relative to R-ketamine” value in the data set with NMDA receptor is listed as “about 4 times”. The “in vivo potency difference between the two enantiomers” value in [6] is “about 4 times”. Also, in [7], the “mean difference in morphine consumption versus placebo” value is reported as 42 mg. Also, the “potency relative to racemic ketamine” value in the data set with orofacial pain is 2 times.
